Assay results from PMC10318822, “Phase 1 dose-escalation study to evaluate the safety, tolerability, pharmacokinetics, and anti-tumor activity of FCN-159 in adults with neurofibromatosis type 1-related unresectable plexiform neurofibromas” (BMC Medicine, 2023).
Entries after “also recorded” stand apart in the source; their conditions may differ.

Legend:
[1] = test system: RAS-mutant tumor cell lines; design: method as in doi:10.1158/1538-7445.AM2020-1951; details: selected RAS-mutant tumor cell lines; cited from earlier work
[2] = test system: patients with NF1-related PN with tumor pain; assay: Pain assessed by 11-point numerical rating scale (NRS-11); format: in vivo, human
Protocol: Efficacy was assessed by radiologic scans and clinical assessment.

[3] = Plasma pharmacokinetics of FCN-159, non-compartmental analysis; format: in vivo, human; details: for AUCtau / CLss/F / Cavg,ss / Cmax,ss / Cmin,ss / ARAUC0-t / ARCmax / AUC0-t / AUC0-∞ / CL/F / Cmax / T1/2 / Vd/F: Geomean; for ARAUC0-t: AUC0-t (steady state) / AUC0-t; for ARCmax: Cmax (steady state) / Cmax; for Tmax: median
Protocol: In order to study the PK characteristics of FCN-159 in plasma, blood samples were collected pre-dose and 0.5, 1, 2, 3, 4, 6, and 10 h post dose on days 1 and 28 of cycle 1, and pre-dose only on days 2, 8, and 15 of cycle 1 and day 1 of cycle 2. Plasma PK parameters of FCN-159 in each dose group were analyzed with standard non-compartmental PK methods using Phoenix WinNonlin, v8.2. PK parameters included area under the curve (AUC)(0-last), AUC(0-∞), maximum plasma concentration (Cmax), time to maximum plasma concentration (Tmax), half-life (T1/2), oral clearance (CL/F), and volume of distribution (Vd/F) for the single-dose regimen and AUC(0-tau), Cmax, Tmax, minimum steady-state plasma concentration (Css,min), mean steady-state plasma concentration (Css, avg), accumulation ratio for AUC (ARAUC), and apparent oral clearance at steady state (CLss/F) for the multiple dose regimen.
Data were summarized using descriptive statistics.
Dose proportionality is assessed by fitting the relationship of the ln-transformed PK parameters (Cmax, AUC) to the ln-transformed dose using a power model loge(Y)=α+βloge(Dose)+ε.

Cn1c(=O)c(F)c(Nc2ccc(I)cc2F)c2c(=O)n(C3CC3)nc(-c3cccc(NS(=O)(=O)C4CC4)c3)c21 [FCN-159]
Cell proliferation [1]: inhibiting cell proliferation | Patients with reduction in pain intensity of at least 2 points ([2]; NRS-11 score ≥ 2 at baseline (16/22), cycles 4 and 5, as of 9 August 2022): 72.7% | Average decrease in pain scores ([2]; across all patients, as of 9 August 2022): 2.4 points | Patients achieving complete pain relief at least once (score reduced to 0) ([2]; as of 9 August 2022): 13 patients | Mean pain score reduction ([2]; dose group of 8 mg): 2.5 points | Patients achieving meaningful pain improvement ([2]; dose group of 8 mg (15/20)): 75% | Dose proportionality of exposure ([3]; Cmax and AUCtau at steady state 4–8 mg, PK profile between 4 and 12 mg): approximately linear; also recorded: roughly dose proportional | Median Tmax ([3]; across all dosing regimens): 1.21 to 2.18 h | Mean accumulation ratio of AUC ([3]; from each cohort): 1.5–2.0 | AUCtau ([3]; multiple dose, 4 mg, N 3): 392 ng·h/mL | CLss/F ([3]; multiple dose, 4 mg, N 3): 10.2 L/h | Cavg,ss ([3]; multiple dose, 4 mg, N 3): 16.3 ng/mL | Cmax,ss ([3]; multiple dose, 4 mg, N 3): 45.0 ng/mL | Cmin,ss ([3]; multiple dose, 4 mg, N 3): 8.54 ng/mL | ARAUC0-t ([3]; multiple dose, 4 mg, N 3): 1.56 | ARCmax ([3]; multiple dose, 4 mg, N 3): 1.25 | Tmax ([3]; multiple dose, 4 mg, N 3): 1.92 h | AUCtau ([3]; multiple dose, 6 mg, N 4): 532 ng·h/mL | CLss/F ([3]; multiple dose, 6 mg, N 4): 11.3 L/h | Cavg,ss ([3]; multiple dose, 6 mg, N 4): 22.2 ng/mL | Cmax,ss ([3]; multiple dose, 6 mg, N 4): 52.2 ng/mL | Cmin,ss ([3]; multiple dose, 6 mg, N 4): 12.2 ng/mL | ARAUC0-t ([3]; multiple dose, 6 mg, N 4): 2.03 | ARCmax ([3]; multiple dose, 6 mg, N 4): 1.37 | Tmax ([3]; multiple dose, 6 mg, N 4): 1.24 h | AUCtau ([3]; multiple dose, 8 mg, N 7): 723 ng·h/mL | CLss/F ([3]; multiple dose, 8 mg, N 7): 11.1 L/h | Cavg,ss ([3]; multiple dose, 8 mg, N 7): 30.1 ng/mL | Cmax,ss ([3]; multiple dose, 8 mg, N 7): 82.5 ng/mL | Cmin,ss ([3]; multiple dose, 8 mg, N 7): 15.4 ng/mL | ARAUC0-t ([3]; multiple dose, 8 mg, N 7): 1.75 | ARCmax ([3]; multiple dose, 8 mg, N 7): 1.36 | Tmax ([3]; multiple dose, 8 mg, N 7): 1.50 h | AUC0-t ([3]; single dose, 4 mg, N 3): 250 ng·h/mL | AUC0-∞ ([3]; single dose, 4 mg, N 3): 370 ng·h/mL | CL/F ([3]; single dose, 4 mg, N 3): 10.8 L/h | Cmax ([3]; single dose, 4 mg, N 3): 36.0 ng/mL | T1/2 ([3]; single dose, 4 mg, N 3): 16.2 h | Vd/F ([3]; single dose, 4 mg, N 3): 253 L | Tmax ([3]; single dose, 4 mg, N 3): 1.43 h | AUC0-t ([3]; single dose, 6 mg, N 4): 262 ng·h/mL | AUC0-∞ ([3]; single dose, 6 mg, N 4): 388 ng·h/mL | CL/F ([3]; single dose, 6 mg, N 4): 15.4 L/h | Cmax ([3]; single dose, 6 mg, N 4): 38.1 ng/mL | T1/2 ([3]; single dose, 6 mg, N 4): 11.4 h | Vd/F ([3]; single dose, 6 mg, N 4): 254 L | Tmax ([3]; single dose, 6 mg, N 4): 1.48 h | AUC0-t ([3]; single dose, 8 mg, N 8): 453 ng·h/mL | AUC0-∞ ([3]; single dose, 8 mg, N 8): 661 ng·h/mL | CL/F ([3]; single dose, 8 mg, N 8): 12.1 L/h | Cmax ([3]; single dose, 8 mg, N 8): 64.2 ng/mL | T1/2 ([3]; single dose, 8 mg, N 8): 15.4 h | Vd/F ([3]; single dose, 8 mg, N 8): 269 L | Tmax ([3]; single dose, 8 mg, N 8): 1.21 h | AUC0-t ([3]; single dose, 12 mg, N 4): 1050 ng·h/mL | AUC0-∞ ([3]; single dose, 12 mg, N 4): 1330 ng·h/mL | CL/F ([3]; single dose, 12 mg, N 4): 9.03 L/h | Cmax ([3]; single dose, 12 mg, N 4): 147 ng/mL | T1/2 ([3]; single dose, 12 mg, N 4): 11.7 h | Vd/F ([3]; single dose, 12 mg, N 4): 153 L | Tmax ([3]; single dose, 12 mg, N 4): 2.18 h
